Biological target: T1, PD-1/PD-L1 binding (Homo sapiens, UniProt Q9NZQ7)
T1 construct: purchased Sino Biological Inc. 10084-H02H-100 (PD-L1-Fc); 10377-H08H-50 (His-PD-1)
Assay: HTRF inhibition of PD-1/PD-L1 binding in vitro
Conditions: His-PD-1 100 nM, PD-L1-Fc 2 nM, read-out: IC50 inhibiting PD-1/PD-L1 binding in vitro
Text: Homogeneous Time-Resolved Fluorescence (HTRF): This method used the recombinant human PD-L1 protein fused to express the hFc tag and the recombinant human PD-1 protein fused to express the His tag, both of which were interacting ligands and receptors. When the anti-hFc antibody containing Eu element chelation marker and the anti-His antibody labeled with XL665 fluorescein were bound with the above two corresponding labels, and excited by a laser with a wavelength of 320 nm, the ligand-receptor binding enabled the energy to be transferred from the Eu element to the XL665 fluorescein, which was excited to emit light at a wavelength of 665 nm. However, when an inhibitor of the interaction between PD-L1 and PD-1 was added, the binding of the ligand to the receptor was destroyed, so that the distance between Eu and XL665 was far away, the energy cannot be transferred, and XL665 would not be excited.
Recombinant human PD-1 protein with His tag (His-PD-1 protein, Cat #: 10377-H08H-50), and recombinant human PD-L1-Fc fusion protein (PD-L1-Fc fusion protein, Cat #: 10084-H02H-100) were purchased from Sino Biological Inc., […] and anti-His-XL665 antibody were purchased from Cisbio Company, and other related reagents such as dilution buffer (Diluent buffer 5, Cat #: 62DL5DDC), detection buffer (PPI-Europium detection buffer, Cat #: 61DB9RDF) were purchased from Cisbio Company. Fluorescence detection instrument Tecan (Spark 10 M) was purchased from Switzerland Tecan Company.
(1) Experimental preparation: The test compound was diluted with dilution buffer into different concentration gradients (the highest final concentration in 20 μL final reaction system was 10 μM), His-PD-1 protein was diluted to 800 nM (the final concentration in 20 μL final reaction system was 100 nM), and the PD-L1-Fc fusion protein was diluted to 16 nM (final concentration was 2 nM). The anti-His-XL665 antibody and anti-hFc-Eu^3+ antibody were respectively diluted 20 times and 100 times using the detection buffer according to the reagent requirements.
(2) 5 μL of test compound, 2.5 μL of PD-L1-Fc fusion protein and 2.5 μL of His-PD-1 protein solution were mixed, and incubated at room temperature for 15 min. Then the system was added with 5 μL of anti-His-XL665 antibody and 5 μL of anti-hFc-Eu^3+ antibody, incubated for another 3 h, and then detected.
(3) When detecting the reaction, a control group was also provided, including a 0% inhibition positive control without adding test compounds and a 100% inhibition negative control without adding PD-1 protein. All detections were performed with duplicates.
(4) The fluorescence signal of each well was measured using a fluorescence detector Tecan (Spark 10M) at an excitation wavelength of 320 nm, and emission wavelengths of 620 nm and 665 nm, respectively. The intensity of the mutual binding of PD-1 and PD-L1 referred to the ratio of fluorescence signals Em665/Em620.
(5) The binding inhibition rate of the test compound was calculated as follows: Inhibition rate (%)=[1−(Fluorescence signal ratio of detection well-fluorescence signal ratio of 100% inhibition negative control)]/(fluorescence signal ratio of 0% inhibition positive control-fluorescence signal ratio of 100% inhibition negative control)×100%. After calculating the inhibition rate on PD-1/PD-L1 binding of the test compounds with different concentration gradients, the 50% inhibitory concentration (IC50) was calculated.

T1 sequence (Q9NZQ7 19-239 limits assumed): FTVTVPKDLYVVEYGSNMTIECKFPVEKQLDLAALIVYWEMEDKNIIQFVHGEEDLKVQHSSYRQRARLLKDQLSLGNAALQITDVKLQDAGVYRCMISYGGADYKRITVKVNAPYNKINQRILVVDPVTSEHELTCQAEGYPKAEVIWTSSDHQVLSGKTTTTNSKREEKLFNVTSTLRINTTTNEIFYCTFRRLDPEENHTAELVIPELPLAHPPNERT

| IC50 [nM] | SMILES |
| --- | --- |
| 2.8 | [2H]C([2H])([2H])OCC12CCC(CCN3CCc4c(nc(C(=O)Nc5cccc(-c6cccc(NC(=O)c7nc8c(n7C)CCN(CCC79CCC(C(=O)O)(CC7)C9)C8)c6Cl)c5C)n4C)C3)(CC1)C2 [Compound I-4, 4-(2-(2-((2-chloro-3′-(5-(2-(4-((methoxy-d3)methyl)bicyclo[2.2.1]heptane-1-yl)ethyl)-1-methyl-4,5,6,7-tetrahydro-1H-imidazo[4,5-c]pyridine-2-carboxamido)-2′-methyl-[1,1′-biphenyl]-3-yl)carbamoyl)-1-methyl-1,4,6,7-tetrahydro-5H-imidazo[4,5-c]pyridin-5-yl)ethyl)bicyclo[2.2.1]heptane-1-carboxylic acid] |
| 1.02 | [2H]C([2H])([2H])OCC12CCC(CCN3CCc4c(nc(C(=O)Nc5cccc(-c6cccc(NC(=O)c7nc8c(n7C([2H])([2H])[2H])CCN(CCC79CCC(C(=O)O)(CC7)C9)C8)c6Cl)c5Cl)n4C([2H])([2H])[2H])C3)(CC1)C2 [Compound I-5, 4-(2-(2-((2,2′-dichloro-3′-(5-(2-(4-((methoxy-d3)methyl)bicyclo[2.2.1]heptane-1-yl)ethyl)-1-(methyl-d3)-4,5,6,7-tetrahydro-1H-imidazo[4,5-c]pyridine-2-carboxamido)-[1,1′-biphenyl]-3-yl)carbamoyl)-1-(methyl-d3)-1,4,6,7-tetrahydro-5H-imidazo[4,5-c]pyridin-5-yl)ethyl)bicyclo[2.2.1]heptane-1-carboxylic acid] |
| 1 | [2H]C([2H])([2H])n1c(C(=O)Nc2cccc(-c3cccc(NC(=O)c4nc5c(n4C([2H])([2H])[2H])CCN(CCC46CCC(C(=O)O)(CC4)C6)C5)c3Cl)c2Cl)nc2c1CCN(CCC13CCC(COC)(CC1)C3)C2 [Compound I-6, 4-(2-(2-((2,2′-dichloro-3′-(5-(2-(4-((methoxy)methyl)bicyclo[2.2.1]heptane-1-yl)ethyl)-1-(methyl-d3)-4,5,6,7-tetrahydro-1H-imidazo[4,5-c]pyridine-2-carboxamido)-[1,1′-biphenyl]-3-yl)carbamoyl)-1-(methyl-d3)-1,4,6,7-tetrahydro-5H-imidazo[4,5-c]pyridin-5-yl)ethyl)bicyclo[2.2.1]heptane-1-carboxylic acid] |
| 3.77 | [2H]C([2H])([2H])OCC12CCC(CCN3CCc4c(nc(C(=O)Nc5cccc(-c6cccc(NC(=O)c7nc8c(n7C([2H])([2H])[2H])CCN(CCC79CCC(C(=O)O)(CC7)C9)C8)c6Cl)c5C)n4C([2H])([2H])[2H])C3)(CC1)C2 [Compound I-9, 4-(2-(2-((2-chloro-3′-(5-(2-(4-((methoxy-d3)methyl)bicyclo[2.2.1]heptane-1-yl)ethyl)-1-(methyl-d3)-4,5,6,7-tetrahydro-1H-imidazo[4,5-c]pyridine-2-carboxamido)-2′-methyl-[1,1′-biphenyl]-3-yl)carbamoyl)-1-(methyl-d3)-1,4,6,7-tetrahydro-5H-imidazo[4,5-c]pyridin-5-yl)ethyl)bicyclo[2.2.1]heptane-1-carboxylic acid] |
| 3.59 | [2H]C([2H])([2H])n1c(C(=O)Nc2cccc(-c3cccc(NC(=O)c4nc5c(n4C([2H])([2H])[2H])CCN(CCC46CCC(C(=O)O)(CC4)C6)C5)c3Cl)c2C)nc2c1CCN(CCC13CCC(COC)(CC1)C3)C2 [Compound I-10, 4-(2-(2-((2-chloro-3′-(5-(2-(4-(methoxymethyl)bicyclo[2.2.1]heptane-1-yl)ethyl)-1-(methyl-d3)-4,5,6,7-tetrahydro-1H-imidazo[4,5-c]pyridine-2-carboxamido)-2′-methyl-[1,1′-biphenyl]-3-yl)carbamoyl)-1-(methyl-d3)-1,4,6,7-tetrahydro-5H-imidazo[4,5-c]pyridin-5-yl)ethyl)bicyclo[2.2.1]heptane-1-carboxylic acid] |
| 4.21 | [2H]C([2H])([2H])OCC12CCC(CCN3CCc4c(nc(C(=O)Nc5cccc(-c6cccc(NC(=O)c7nc8c(n7C([2H])([2H])[2H])CCN(CCC79CCC(C(=O)O)(CC7)C9)C8)c6C)c5Cl)n4C([2H])([2H])[2H])C3)(CC1)C2 [Compound I-11, 4-(2-(2-((2′-chloro-3′-(5-(2-(4-((methoxy-d3)methyl)bicyclo[2.2.1]heptane-1-yl)ethyl)-1-(methyl-d3)-4,5,6,7-tetrahydro-1H-imidazo[4,5-c]pyridine-2-carboxamido)-2-methyl-[1,1′-biphenyl]-3-yl)carbamoyl)-1-(methyl-d3)-1,4,6,7-tetrahydro-5H-imidazo[4,5-c]pyridin-5-yl)ethyl)bicyclo[2.2.1]heptane-1-carboxylic acid] |
| 3.8 | [2H]C([2H])([2H])n1c(C(=O)Nc2cccc(-c3cccc(NC(=O)c4nc5c(n4C([2H])([2H])[2H])CCN(CCC46CCC(COC)(CC4)C6)C5)c3Cl)c2C)nc2c1CCN(CCC13CCC(C(=O)O)(CC1)C3)C2 [Compound I-12, 4-(2-(2-((2′-chloro-3′-(5-(2-(4-(methoxymethyl)bicyclo[2.2.1]heptane-1-yl)ethyl)-1-(methyl-d3)-4,5,6,7-tetrahydro-1H-imidazo[4,5-c]pyridine-2-carboxamido)-2-methyl-[1,1′-biphenyl]-3-yl)carbamoyl)-1-(methyl-d3)-1,4,6,7-tetrahydro-5H-imidazo[4,5-c]pyridin-5-yl)ethyl)bicyclo [2.2.1]heptane-1-carboxylic acid] |
| 1.23 | [2H]c1c([2H])c(NC(=O)c2nc3c(n2C([2H])([2H])[2H])CCN(CCC24CCC(COC([2H])([2H])[2H])(CC2)C4)C3)c(Cl)c(-c2c([2H])c([2H])c([2H])c(NC(=O)c3nc4c(n3C([2H])([2H])[2H])CCN(CCC35CCC(C(=O)O)(CC3)C5)C4)c2Cl)c1[2H] [Compound I-13, 4-(2-(2-((2,2′-dichloro-3′-(5-(2-(4-((methoxy-d3)methyl)bicyclo[2.2.1]heptane-1-yl)ethyl)-1-(methyl-d3)-4,5,6,7-tetrahydro-1H-imidazo[4,5-c]pyridine-2-carboxamido)-[1,1′-biphenyl]-3-yl-4,4′, 5,5′,6,6′-d6)carbamoyl)-1-(methyl-d3)-1,4,6,7-tetrahydro-5H-imidazo[4,5-c]pyridin-5-yl)ethyl)bicyclo[2.2.1]heptane-1-carboxylic acid] |
